Data taken from US20260265246A1 (ICAHN SCHOOL OF MEDICINE AT MOUNT SINAI, priority 2021, published 2026).
Read-outs that look alike come from different tables or passages of the source.

Tests used:
5HT2A receptor [1] = biological target: T1, 5HT2A receptor (Homo sapiens, UniProt P28223); assay: cell-based; set-up: expressed in transfected cells; host or cells: HEK293T cells, transient co-transfection; settings: for Emax: HEK-293T
5HT2A receptor [2] = biological target: T1, 5HT2A receptor; assay: biochemical; format: binding; set-up: expressed in transfected cells; crude membranes
5HT2A receptor [3] = biological target: T1, 5HT2A receptor; assay: cell-based; set-up: expressed in transfected cells; host or cells: HEK293T cells, transient co-transfection; settings: for Emax: HEK-293T; remark: listed apart in the source
[4] = BRET2 Gαq dissociation, HEK293T cells, read-out: 5HT2A Gq EC50
[5] = BRET2 Gαq dissociation, HEK293T cells, normalized to 5-HT, read-out: 5HT2A Gq Emax (%)
[6] = 5HT2A Ki (nM), secondary radioligand binding, Ki from IC50 by Cheng-Prusoff
[7] = 5HT2A β-Arr EC50 (nM), BRET1 beta-arrestin2 recruitment, HEK293T cells
[8] = BRET1 beta-arrestin2 recruitment, HEK293T cells, normalized to 5-HT, read-out: 5HT2A β-Arr Emax (%)
[9] = 5HT2A Gq EC50 (nM), BRET2 Gαq dissociation, HEK293T cells
[10] = read-out: 5HT2A Gq Emax (%), BRET2 Gαq dissociation, HEK293T cells, normalized to 5-HT
[11] = read-out: 5HT2A β-Arr Emax (%), BRET1 beta-arrestin2 recruitment, HEK293T cells, normalized to 5-HT
[12] = secondary radioligand binding, Ki from IC50 by Cheng-Prusoff, read-out: 5HT2A Ki
[13] = BRET1 beta-arrestin2 recruitment, HEK293T cells, read-out: 5HT2A β-Arr EC50
[14] = BRET2 Gαq dissociation, HEK293T, read-out: 5HTA Gq EC50
[15] = BRET2 Gαq dissociation, HEK293T, normalized to 5-HT, read-out: 5HTA Gq Emax (%)
[16] = 5HT2A Ki (nM), secondary binding assay, Cheng-Prusoff
[17] = BRET1 beta-arrestin2 recruitment, HEK293T, read-out: 5HT2A β-Arr EC50
[18] = BRET1 beta-arrestin2 recruitment, HEK293T, normalized to 5-HT, read-out: 5HT2A β-Arr Emax (%)
[19] = secondary binding assay, Cheng-Prusoff, read-out: 5HT2A Ki
[20] = 5HTA Gq EC50 (nM), BRET2 Gαq dissociation, HEK293T
[21] = 5HT2A β-Arr EC50 (nM), BRET1 beta-arrestin2 recruitment, HEK293T

T1 sequence (P28223 whole entry): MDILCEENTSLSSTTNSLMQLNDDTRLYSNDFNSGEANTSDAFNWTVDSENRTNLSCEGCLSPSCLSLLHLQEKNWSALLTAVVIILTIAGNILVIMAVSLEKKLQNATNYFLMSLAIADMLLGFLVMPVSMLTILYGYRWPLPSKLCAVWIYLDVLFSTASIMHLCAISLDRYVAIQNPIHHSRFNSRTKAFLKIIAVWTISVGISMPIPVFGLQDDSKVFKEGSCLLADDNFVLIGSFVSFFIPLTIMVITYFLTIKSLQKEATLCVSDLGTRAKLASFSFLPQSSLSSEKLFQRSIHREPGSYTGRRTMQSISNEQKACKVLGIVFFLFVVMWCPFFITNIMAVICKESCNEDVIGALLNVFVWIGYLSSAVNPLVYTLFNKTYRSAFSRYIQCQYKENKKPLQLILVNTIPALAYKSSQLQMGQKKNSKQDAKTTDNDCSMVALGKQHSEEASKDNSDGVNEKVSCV

Structure (SMILES)	Emax (5HT2A receptor [1]; [5]) [%]	Ki (5HT2A receptor [2]; [6]) [nM]	EC50 (5HT2A receptor [3]; [7]) [nM]	Emax (5HT2A receptor [3]; [8]) [%]	Emax (5HT2A receptor [1]; [15]) [%]	Emax (5HT2A receptor [3]; [18]) [%]	also measured
CN1CCC=C(c2n[nH]c3c(Cl)cccc23)C1 [Example 106, 7-chloro-3-(1-methyl-1,2,5,6-tetrahydropyridin-3-yl)-1H-indazole]	85.5	332	176	66.8	–	–	EC50 (5HT2A receptor [1]; [4]): 39.1 nM
CN1CCC=C(c2n[nH]c3c(F)cccc23)C1 [Example 107, 7-fluoro-3-(1-methyl-1,2,5,6-tetrahydropyridin-3-yl)-1H-indazole]	–	883	213	–	–	–	EC50 (5HT2A receptor [1]; [9]): 34.5 nM; Emax (5HT2A receptor [1]; [10]): 68.1%; Emax (5HT2A receptor [3]; [11]): 36.3%
CN1CCC=C(c2n[nH]c3c(C#N)cccc23)C1 [Example 108, 3-(1-methyl-1,2,5,6-tetrahydropyridin-3-yl)-1H-indazole-7-carbonitrile]	102	1380	494	72.5	–	–	EC50 (5HT2A receptor [1]; [9]): 108 nM
Clc1cccc2c(C3CCCNC3)n[nH]c12 (stereo not drawn) [Example 114, 7-chloro-3-(piperidin-3-yl)-1H-indazole]	–	1240	468	–	–	–	EC50 (5HT2A receptor [1]; [9]): 290 nM; Emax (5HT2A receptor [1]; [10]): 74.5%; Emax (5HT2A receptor [3]; [11]): 29.3%
CN1CCC=C(c2c[nH]c3c(Cl)cc(F)cc23)C1 [Example 115, 7-chloro-5-fluoro-3-(1-methyl-1,2,5,6-tetrahydropyridin-3-yl)-1H-indole]	114	–	576	59.7	–	–	EC50 (5HT2A receptor [1]; [4]): 51.1 nM; Ki (5HT2A receptor [2]; [12]): 20.8 nM
Cc1cc(F)cc2c(C3=CCCN(C)C3)c[nH]c12 [Example 116, 5-fluoro-7-methyl-3-(1-methyl-1,2,5,6-tetrahydropyridin-3-yl)-1H-indole]	125	–	129	56.1	–	–	EC50 (5HT2A receptor [1]; [4]): 74 nM; Ki (5HT2A receptor [2]; [12]): 99.6 nM
CN1CCC=C(c2c[nH]c3nccc(F)c23)C1 [Example 117, 4-fluoro-3-(1-methyl-1,2,5,6-tetrahydropyridin-3-yl)-1H-pyrrolo[2,3-b]pyridine]	110	1360	865	51.1	–	–	EC50 (5HT2A receptor [1]; [9]): 253 nM
CN1CCC=C(c2c[nH]c3ncc(F)cc23)C1 [Example 118, 5-fluoro-3-(1-methyl-1,2,5,6-tetrahydropyridin-3-yl)-1H-pyrrolo[2,3-b]pyridine]	109	80.3	49.4	56.7	–	–	EC50 (5HT2A receptor [1]; [9]): 31.6 nM
Fc1ccnc2[nH]cc(C3=CCCNC3)c12 [Example 119, 4-fluoro-3-(1,2,5,6-tetrahydropyridin-3-yl)-1H-pyrrolo[2,3-b]pyridine]	88.2	844	1520	53.8	–	–	EC50 (5HT2A receptor [1]; [9]): 193 nM
Fc1cnc2[nH]cc(C3=CCCNC3)c2c1 [Example 120, 5-fluoro-3-(1,2,5,6-tetrahydropyridin-3-yl)-1H-pyrrolo[2,3-b]pyridine]	100	53.6	67.4	60.4	–	–	EC50 (5HT2A receptor [1]; [9]): 21.5 nM
CCc1cccc2c(C3=CCCNC3)n[nH]c12 [Example 121, 7-ethyl-3-(1,2,5,6-tetrahydropyridin-3-yl)-1H-indazole]	103	422	–	85.7	–	–	EC50 (5HT2A receptor [1]; [4]): 20.2 nM; EC50 (5HT2A receptor [3]; [13]): 75.8 nM
CCc1cccc2c(C3=CCCN(C)C3)n[nH]c12 [Example 122, 7-ethyl-3-(1-methyl-1,2,5,6-tetrahydropyridin-3-yl)-1H-indazole]	102	816	247	42.9	–	–	EC50 (5HT2A receptor [1]; [9]): 151 nM
C=CCN1CCC=C(c2n[nH]c3c(Cl)cccc23)C1 [Example 124, 3-(1-allyl-1,2,5,6-tetrahydropyridin-3-yl)-7-chloro-1H-indazole]	64.9	159	1010	35.3	–	–	EC50 (5HT2A receptor [1]; [4]): 49.6 nM
C#CCN1CCC=C(c2n[nH]c3c(Cl)cccc23)C1 [Example 125, 7-chloro-3-(1-(prop-2-yn-1-yl)-1,2,5,6-tetrahydropyridin-3-yl)-1H-indazole]	93.5	1970	291	63.3	–	–	EC50 (5HT2A receptor [1]; [4]): 75 nM
CCN1CCC=C(c2c[nH]c3c(Cl)cccc23)C1 [Example 126, 7-chloro-3-(1-ethyl-1,2,5,6-tetrahydropyridin-3-yl)-1H-indole]	96.6	–	–	62.9	–	–	EC50 (5HT2A receptor [1]; [4]): 40.2 nM; Ki (5HT2A receptor [2]; [12]): 42.6 nM; EC50 (5HT2A receptor [3]; [13]): 74.9 nM
Cc1c(F)ccc2c(C3=CCCN(C)C3)c[nH]c12 [Example 127, 6-fluoro-7-methyl-3-(1-methyl-1,2,5,6-tetrahydropyridin-3-yl)-1H-indole]	–	–	–	–	90.2	48.9	EC50 (5HT2A receptor [1]; [14]): 26.6 nM; Ki (5HT2A receptor [2]; [16]): 121 nM; EC50 (5HT2A receptor [3]; [17]): 62.9 nM
CN1CCC=C(c2c[nH]c3c(Cl)c(F)ccc23)C1 [Example 128, 7-chloro-6-fluoro-3-(1-methyl-1,2,5,6-tetrahydropyridin-3-yl)-1H-indole]	–	–	–	–	89.2	56.5	EC50 (5HT2A receptor [1]; [14]): 11.9 nM; Ki (5HT2A receptor [2]; [19]): 15.3 nM; EC50 (5HT2A receptor [3]; [17]): 66.1 nM
Fc1cc(Cl)c2[nH]nc(C3=CCCNC3)c2c1 [Example 129, 7-chloro-5-fluoro-3-(1,2,5,6-tetrahydropyridin-3-yl)-1H-indazole]	–	–	–	–	88.8	95	EC50 (5HT2A receptor [1]; [14]): 3.1 nM; Ki (5HT2A receptor [2]; [16]): 162 nM; EC50 (5HT2A receptor [3]; [17]): 20.1 nM
CN1CCC=C(c2n[nH]c3c(Cl)cc(F)cc23)C1 [Example 130, 7-chloro-5-fluoro-3-(1-methyl-1,2,5,6-tetrahydropyridin-3-yl)-1H-indazole]	–	–	–	–	91.4	88.5	EC50 (5HT2A receptor [1]; [14]): 12.9 nM; Ki (5HT2A receptor [2]; [19]): 19.5 nM; EC50 (5HT2A receptor [3]; [17]): 165 nM
Fc1ccc(Cl)c2[nH]nc(C3=CCCNC3)c12 [Example 131, 7-chloro-4-fluoro-3-(1,2,5,6-tetrahydropyridin-3-yl)-1H-indazole]	–	–	–	–	106	72.7	EC50 (5HT2A receptor [1]; [14]): 7.2 nM; Ki (5HT2A receptor [2]; [19]): 47.5 nM; EC50 (5HT2A receptor [3]; [17]): 17.4 nM
CN1CCC=C(c2n[nH]c3c(Cl)ccc(F)c23)C1 [Example 132, 7-chloro-4-fluoro-3-(1-methyl-1,2,5,6-tetrahydropyridin-3-yl)-1H-indazole]	–	–	–	–	95.4	50.9	EC50 (5HT2A receptor [1]; [14]): 24 nM; Ki (5HT2A receptor [2]; [19]): 84.6 nM; EC50 (5HT2A receptor [3]; [17]): 93 nM
Fc1ccc2c(C3=CCCNC3)c[nH]c2n1 [Example 133, 6-fluoro-3-(1,2,5,6-tetrahydropyridin-3-yl)-1H-pyrrolo[2,3-b]pyridine]	–	–	–	–	–	–	EC50 (5HT2A receptor [1]; [20]): 166 nM; Emax (5HT2A receptor [1]; read-out: 5HTA Gq Emax (%), BRET2 Gαq dissociation, HEK293T, normalized to 5-HT): 77.2%; Ki (5HT2A receptor [2]; [16]): 292 nM; EC50 (5HT2A receptor [3]; [21]): 897 nM; Emax (5HT2A receptor [3]; read-out: 5HT2A β-Arr Emax (%), BRET1 beta-arrestin2 recruitment, HEK293T, normalized to 5-HT): 38.1%
CN1CCC=C(c2c[nH]c3nc(F)ccc23)C1 [Example 134, 6-fluoro-3-(1-methyl-1,2,5,6-tetrahydropyridin-3-yl)-1H-pyrrolo[2,3-b]pyridine]	–	–	–	–	87.4	51.1	EC50 (5HT2A receptor [1]; [20]): 140 nM; Ki (5HT2A receptor [2]; [16]): 284 nM; EC50 (5HT2A receptor [3]; [21]): 1050 nM
Cc1ccnc2c(C3=CCCN(C)C3)c[nH]c12 [Example 137, 7-methyl-3-(1-methyl-1,2,5,6-tetrahydropyridin-3-yl)-1H-pyrrolo[3,2-b]pyridine]	–	–	–	–	74.4	44.6	EC50 (5HT2A receptor [1]; [20]): 57.6 nM; Ki (5HT2A receptor [2]; [16]): 531 nM; EC50 (5HT2A receptor [3]; [21]): 372 nM
C1=C(c2c[nH]c3cccnc23)CNCC1 [Example 138, 3-(1,2,5,6-tetrahydropyridin-3-yl)-1H-pyrrolo[3,2-b]pyridine]	–	–	–	–	79	101	EC50 (5HT2A receptor [1]; [20]): 118 nM; Ki (5HT2A receptor [2]; [16]): 147 nM; EC50 (5HT2A receptor [3]; [21]): 1420 nM
CCN1CCC=C(c2n[nH]c3c(Cl)cccc23)C1 [Example 145, 7-chloro-3-(1-ethyl-1,2,5,6-tetrahydropyridin-3-yl)-1H-indazole]	–	–	–	–	64.4	42.4	EC50 (5HT2A receptor [1]; [14]): 23.3 nM; Ki (5HT2A receptor [2]; [16]): 123 nM; EC50 (5HT2A receptor [3]; [17]): 77 nM
CCN1CCC=C(c2nn(CC)c3c(Cl)cccc23)C1 [Example 146, 7-chloro-1-ethyl-3-(1-ethyl-1,2,5,6-tetrahydropyridin-3-yl)-1H-indazole]	–	–	–	–	54.5	56.7	EC50 (5HT2A receptor [1]; [20]): 51.7 nM; Ki (5HT2A receptor [2]; [16]): 171 nM; EC50 (5HT2A receptor [3]; [21]): 1530 nM
